According to patent US20260191818A1 (University of South Carolina, priority 2022, published 2026):

Tests used:
C26 tumor-bearing mice = C26 tumor-bearing mice given 5FU (cancer and chemotherapy-induced cachexia): body, tumor and tissue weights, food intake; type: in vivo, CD2F1 mice
Method: Male (n=20) CD2F1 (CD2F1) hybrid mice were purchased from Charles River Laboratory (Raleigh, NC) at 10 weeks of age. Mice arrived at our facilities and were given AlN76 diet and allowed to acclimate to the new facilities and purified diet for 4 weeks. Mice were kept in ventilated cages (5 per cage), on a 12:12 h light/dark cycle, in a humidity and temperature control room (~22° C.) and given ad libitum access to water and food. Animal handling and experiments were performed to minimize pain and discomfort. […] Control mice were non-tumor-bearing mice given PBS i.p. and propylene glycol p.o. as vehicle controls. Body weights were measured daily. Food weights per cage were measured daily and average food intake was calculated by the difference in food weight between days. […] Hind limb muscles and select organs were excised, weighed, and snap frozen in liquid nitrogen while mice were under sedation (2% Isoflurane, 2 L/min O2). All procedures involving animals were reviewed and approved by the Institutional Animal Care and Usage Committee (IACUC) at the University of South Carolina in accordance with the American Association for Laboratory Animal Science. C26 (colon 26 adenocarcinoma) cells were gifted from Dr. Andrea Bonetto's laboratory and grown in complete DMEM (10% fetal bovine serum, 1% penicillin/streptomycin). Cells were split at 70% confluency and passage 3 was used for cell implantation. On Day 0, CD2F1 mice were given a subcutaneous injection of 1×10^6 C26 cells in the subscapular area as previously described. See, Bonetto, A., et al., The Colon-26 Carcinoma Tumor-bearing Mouse as a Model for the Study of Cancer Cachexia. J Vis Exp, 2016(117). Tumors were palpable at Day 8 in all C26 tumor-bearing mice. […] VWR; CAS #:51-21-8) was solubilized in warmed phosphate buffered saline (PBS) at 3.0 mg/mL, sterile filtered with a 0.2 μm filter and administered at the beginning of the light cycle (0700) via i.p. injection to mice with established tumor (day 11 after C26 implantation). […] Cancer Biol Ther, 2022. 23(1): p. 1-15; and […]., et al., The Acute Effects of 5 Fluorouracil on Skeletal Muscle Resident and Infiltrating Immune Cells in Mice. […] Data were analyzed using Prism 8 statistical software (GraphPad Software, CA, USA). […] The healthy controls are shown as a reference point but were not included in statistical analysis. Additionally, the C26 alone group was not included in analysis, but is shown as a reference point for tumor growth without chemotherapy intervention. Data are presented as the mean±SEM and the level of significance was set up at p<0.05.

[1] = tested on: tibialis anterior (TA) muscle; experiment: Muscle histology (H&E), myofibrillar cross sectional area of tibialis anterior; type: in vivo, CD2F1 mice; settings: C26+5FU+Quer vs C26+5FU
Method: Skeletal muscle histology was assessed via hematoxylin and eosin (H&E) staining on tibialis anterior (TA) muscle cryosections. The TA muscle was dissected, snap-frozen in liquid nitrogen with Optimum Cutting Temperature (OCT) embedding medium placed on the most distal portion of the TA and stored in −80° C. Tissue was acclimated to the cryostat temperature (−24° C.) prior to collection of transverse sections ([…]) on Fisherbrand Superfrost Plus Microscope Slides. TA tissue slides were then stored at −80° C. until staining. Slides were fixed in ice-cold acetone and H&E staining was completed as previously described. […] Cancer Biol Ther, 2022. 23(1); and VanderVeen, B. N., et al., 5-Fluorouracil disrupts skeletal muscle immune cells and impairs skeletal muscle repair and remodeling. J Appl Physiol (1985), 2022. 133(4): p. 834-849. Images of H&E stains were taken at 20× and 40× magnification using a Keyence BZX800 microscope. Muscle cross sectional area (mCSA) was measured using ImageJ by measuring the circumference of 500-700 myofibers/mouse (n=3-5/group).

[2] = tested on: mitochondrial complexes I-V, VDAC, cytochrome c; experiment: Western blot of rectus femoris, mitochondrial content proteins; type: in vivo, CD2F1 mice; settings: C26+5FU+Quer vs C26+5FU; p=0.01
Method: Protein isolation and western blotting was completed similar to what has been previously described. See, Sougiannis, A. T., et al., Impact of weight loss and partial weight regain on immune cell and inflammatory markers in adipose tissue in male mice. J Appl Physiol (1985), 2020. 129(4): p. 909-919. The rectus femoris (RF) was teased from the other quadriceps muscles, cut in half (proximal/distal), snap frozen in liquid nitrogen, and stored at −80° C. The distal RF was homogenized in Mueller Buffer (50 mM Hepes, 0.1% Triton-x, 4 mM EGTA, 10 mM EDTA, 15 mM Na4P207, 100 mM β-glycerophosphate, 25 mM NaF, and 5 mM NaVO4, with protease inhibitor cocktail) using a bead homogenizer at 4° C. Samples were centrifuged and the supernatant was collected and diluted with a diluent buffer (50% Glycerol, 50 mM Na4P2O7, 2.5 mM EGTA, and 1 mM β-mercaptoethanol with protease inhibitor cocktail). Protein concentrations were determined using the Bradford standard protein assay and protein integrity was confirmed with SDS-PAGE and amido black staining. Between 10-50 μg of muscle protein homogenate was separated via SDS-PAGE and transferred to a PVDF membrane. Membranes were stained with Ponceau Red to confirm even loading and transfer efficiency. […] Images were then scanned, and relative protein expression was determined with ImageJ. […]

[3] = tested on: STAT3, P65/NFκβ, P38/MAPK; experiment: Western blot of rectus femoris, inflammatory signaling proteins; type: in vivo, CD2F1 mice; settings: C26+5FU+Quer vs C26+5FU
Method: Protein isolation and western blotting was completed similar to what has been previously described. See, Sougiannis, A. T., et al., Impact of weight loss and partial weight regain on immune cell and inflammatory markers in adipose tissue in male mice. J Appl Physiol (1985), 2020. 129(4): p. 909-919. The rectus femoris (RF) was teased from the other quadriceps muscles, cut in half (proximal/distal), snap frozen in liquid nitrogen, and stored at −80° C. The distal RF was homogenized in Mueller Buffer (50 mM Hepes, 0.1% Triton-x, 4 mM EGTA, 10 mM EDTA, 15 mM Na4P207, 100 mM β-glycerophosphate, 25 mM NaF, and 5 mM NaVO4, with protease inhibitor cocktail) using a bead homogenizer at 4° C. Samples were centrifuged and the supernatant was collected and diluted with a diluent buffer (50% Glycerol, 50 mM Na4P2O7, 2.5 mM EGTA, and 1 mM β-mercaptoethanol with protease inhibitor cocktail). Protein concentrations were determined using the Bradford standard protein assay and protein integrity was confirmed with SDS-PAGE and amido black staining. Between 10-50 μg of muscle protein homogenate was separated via SDS-PAGE and transferred to a PVDF membrane. Membranes were stained with Ponceau Red to confirm even loading and transfer efficiency. Membranes were then washed with tris buffered saline with 0.1% Tween (TBST) before blocking for 1 h at room temp with 5% milk TBST. Membranes were then incubated in primary anti-body (Table 1, see FIG. 8) overnight at 4° C. under gentle agitation. Membranes were then washed 3×5 min and incubated with the appropriate (anti-mouse or rabbit) HRP-linked secondary in 5% milk TBST for 1 h at room temperature. After a final 3×5 min wash membranes were incubated in chemiluminescent HRP substrate before visualization with a Syngene G:box. Images were then scanned, and relative protein expression was determined with ImageJ. Investigator was blinded to sample loading scheme and images were cropped after analysis for representation. All samples (full Ns) were run together for each protein. Dotted lines indicate where gels were cropped.

C26 model of cachexia = settings: Quercetin 35 mg/kg; cited from earlier work
CD2F1 mice = settings: mouse, in vivo; cited from earlier work

O=c1c(O)c(-c2ccc(O)c(O)c2)oc2cc(O)cc(O)c12 [quercetin, 3,4,5,7-pentahydroxylflavone]
greater EDL weight (C26 tumor-bearing mice; C26+5FU+Quer vs C26+5FU, p=0.039): 23.7%
greater gonadal fat pad weight (C26 tumor-bearing mice; C26+5FU+Quer vs C26+5FU, p=0.04): 50.0%
greater gastrocnemius weight (C26 tumor-bearing mice; C26+5FU+Quer vs C26+5FU, p=0.055): 13.9%
other measured muscle weights (C26 tumor-bearing mice; C26+5FU+Quer vs C26+5FU, p=0.09-0.15): did not achieve statistically significant differences
greater RF (rectus femoris) weight (C26 tumor-bearing mice; C26+5FU+Quer vs C26+5FU, quercetin 50 mg/kg p.o., p=0.02): 14.4%
impact on body weight loss (C26 tumor-bearing mice; mice given 5FU 30 mg/kg lean mass i.p., quercetin 50 mg/kg p.o. vs propylene glycol, daily from Day 11): no apparent impact
myofibrillar fiber size distribution [1]: rightward shift
increase in TA mean CSA ([1]; H&E): 32.0%
change in expression of cytochrome c [2]: 48.9%
change in p/tP65 ([3]; increased, p=0.03): 41.9%
change in phospho:total P38 ([3]; p=0.19): −30.0%
change in phospho:total (p/t) STAT3 ([3]; p=0.36): 33.2%
muscle mass loss (C26 model of cachexia): protected against muscle mass loss
sub-chronic toxicity (CD2F1 mice): no deleterious effects or toxicities
